# Test results: patent US20250376484A1, “PRMT5 INHIBITORS AND USES THEREOF” (Gilead Sciences, Inc., priority 2024, published 2025)
# Assays:
# MDR1 = molecular target: T1, MDR1 (Homo sapiens, UniProt P08183); test: MDR1/BCRP assay: efflux ratio in cPgp-KO-MDR1-KI cells; assay type: in vitro ADME; details: dog, MDCK-MDR1, efflux ratio Papp (B-to-A)/Papp (A-to-B), 2-hour time point, read-out: cPgp-KO-MDR1-KI (ER)
# T1 construct: host or cells: MDCK cells with canine Pgp knocked out and MDR1 knocked in (cPgp-KO-MDR1-KI)
# T1 sequence (P08183 whole entry): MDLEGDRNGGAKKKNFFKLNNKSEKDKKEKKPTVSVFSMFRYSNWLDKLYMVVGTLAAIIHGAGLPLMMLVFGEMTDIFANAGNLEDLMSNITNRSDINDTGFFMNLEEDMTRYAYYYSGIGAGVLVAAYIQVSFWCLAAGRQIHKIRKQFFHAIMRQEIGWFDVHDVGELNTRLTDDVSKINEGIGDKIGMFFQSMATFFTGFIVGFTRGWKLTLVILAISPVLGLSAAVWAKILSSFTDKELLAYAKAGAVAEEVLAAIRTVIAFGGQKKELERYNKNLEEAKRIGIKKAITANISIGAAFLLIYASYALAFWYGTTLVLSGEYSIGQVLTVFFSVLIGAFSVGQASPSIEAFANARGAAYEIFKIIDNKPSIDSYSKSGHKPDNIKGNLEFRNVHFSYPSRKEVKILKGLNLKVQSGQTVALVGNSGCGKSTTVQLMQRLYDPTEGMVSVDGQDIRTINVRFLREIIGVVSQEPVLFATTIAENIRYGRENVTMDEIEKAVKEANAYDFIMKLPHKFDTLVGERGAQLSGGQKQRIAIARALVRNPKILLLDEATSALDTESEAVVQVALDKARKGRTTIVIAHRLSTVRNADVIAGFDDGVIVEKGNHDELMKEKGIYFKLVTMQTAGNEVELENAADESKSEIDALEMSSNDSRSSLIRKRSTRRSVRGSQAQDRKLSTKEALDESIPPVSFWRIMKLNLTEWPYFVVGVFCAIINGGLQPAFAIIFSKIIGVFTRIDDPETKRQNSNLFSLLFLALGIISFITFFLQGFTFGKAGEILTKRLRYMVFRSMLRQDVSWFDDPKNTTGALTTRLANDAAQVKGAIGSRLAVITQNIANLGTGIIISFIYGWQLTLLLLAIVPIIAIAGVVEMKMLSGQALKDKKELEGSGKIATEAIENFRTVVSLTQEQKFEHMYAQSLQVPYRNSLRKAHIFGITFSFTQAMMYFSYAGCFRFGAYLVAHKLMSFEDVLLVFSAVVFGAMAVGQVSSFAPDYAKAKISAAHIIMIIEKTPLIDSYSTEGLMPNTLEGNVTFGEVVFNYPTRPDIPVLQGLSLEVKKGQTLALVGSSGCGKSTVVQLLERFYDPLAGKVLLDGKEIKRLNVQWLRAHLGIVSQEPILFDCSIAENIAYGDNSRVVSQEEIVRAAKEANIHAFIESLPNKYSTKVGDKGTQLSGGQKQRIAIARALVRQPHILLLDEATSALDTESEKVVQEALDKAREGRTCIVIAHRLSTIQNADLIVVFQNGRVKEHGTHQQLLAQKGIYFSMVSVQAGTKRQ
# Experimental: (§1) cPgp-KO-MDCK-WT, cPgp-KO-MDR1-KI, and cPgp-KO—BCRP—KI cells (all from Sigma) were cultured in Dulbecco's Modification of Eagle's Medium (DMEM) with 4.5 g/L glucose, sodium pyruvate, and GlutaMAX (Gibco) supplemented with 1% Pen/Strep and 10% fetal bovine serum. The cells were maintained in an incubator at 37° C., 90% humidity, and 5% CO2 until reaching confluence over 5 days in 96-well transwell plates. Experiments were conducted using an HBSS donor buffer (Invitrogen) containing 10 mM HEPES and 15 mM glucose, adjusted to pH 7.4. The receiver well contained HBSS buffer supplemented with 1% BSA, 10 mM HEPES, and 15 mM glucose, and the pH was adjusted to 7.4. TEER values were measured to assess membrane integrity after an initial equilibration with BSA-free transport buffer for 15 minutes. The experiment was started by adding dosing solutions containing test compounds at 1 μM. Cells were dosed on the apical (A) side or basolateral (B) side at 100 μl and 200 μl, respectively, to determine forward (A to B) and reverse (B to A) permeability. At the 2-hour time point, 50 μl samples were collected from the receiver compartment. Each compound was tested in 2 separate replicate wells for each condition. All samples were immediately collected into plates, and 50 μL of acetonitrile was added. Subsequently, 350 μl of 30:70 methanol: acetonitrile containing internal standard was added to precipitate proteins and stabilize the test compounds. To test for non-specific binding and compound instability, the total amount of the drug was quantified at the end of the experiment and compared to the material present in the original dosing solution as a percentage of the recovery. All samples were analyzed by LC-MS/MS using electrospray ionization.
# (§2) The apparent permeability, Papp, and % recovery were calculated as follows: […]
# [1] = test system: HCT116 MTAP-deleted cell lines; test: Cell viability assay (CellTitre-Glo), HCT116 MTAP-deleted; assay type: cell-based; details: for CC50: Homo sapiens, HCT-116, 168 h, HCT116 MTAP-deleted cells, 7 days of treatment, CTG luminescence, read-out: MTAP^del HCT116 CC50; for Selectivity: WT HCT116 CC50 versus MTAP^del HCT116 CC50
# Experimental: (§3) Control compounds were analyzed in parallel each time for quality control.
# (§4) In Brief, on Day-1, a serial dilution of stock compounds in DMSO was performed using BioMek liquid handlers and dispensed using Echo acoustic dispenser into 384 well plates. Both tool compounds and sample compounds were spotted in the same plate for a dose response of PRMT5 inhibitors. Compound plates were stored as frozen until the cells were ready for seeding.
# (§5) On Day 0, 100 HCT WT or HCT116 MTAP-deleted cells were seeded in compound-containing 384 well plates (50 μl per well) in RPMI 1640 media supplemented with 10% heat inactivated fetal bovine serum, Glutamax and penicillin streptomycin using EL460 liquid dispenser 5 μl cassette (BioTek, part no. 7170011). After equilibrating the plate in room temperature, the cells were incubated for 7 days inside the sealed incubator set at 37° C. with […] and 5% CO2.
# (§6) On Day 7, the viability of cells was measured using a CTG assay kit (CellTitre-Glo; Promega cat no. G7573). Shortly, 40 μl per well of luminescent cell viability assay reagent were dispensed using EL460 liquid dispenser 5 μl cassette. CTG luminescence signal was measured using an EnVision plate reader (PerkinElmer) in accordance with manufacturer's instruction. The CC50 values for each compound after 7 days of treatment were calculated using 4 parameter non-linear logistical curve fit.
# [2] = Cell viability assay (CellTitre-Glo), HCT116 WT; assay type: cell-based; details: human; HCT116 WT cells, 7 days of treatment, CTG luminescence
# Experimental: as §3, §4, §5, §6
# BCRP = molecular target: T2, BCRP (Homo sapiens, UniProt Q9UNQ0); test: MDR1/BCRP assay: efflux ratio in cPgp-KO-BCRP-KI cells; assay type: in vitro ADME; details: dog, efflux ratio Papp (B-to-A)/Papp (A-to-B), 2-hour time point, read-out: cPgp-KO-BCRP-KI (ER)
# T2 construct: host or cells: MDCK cells with canine Pgp knocked out and BCRP knocked in (cPgp-KO-BCRP-KI)
# T2 sequence (Q9UNQ0 1-655): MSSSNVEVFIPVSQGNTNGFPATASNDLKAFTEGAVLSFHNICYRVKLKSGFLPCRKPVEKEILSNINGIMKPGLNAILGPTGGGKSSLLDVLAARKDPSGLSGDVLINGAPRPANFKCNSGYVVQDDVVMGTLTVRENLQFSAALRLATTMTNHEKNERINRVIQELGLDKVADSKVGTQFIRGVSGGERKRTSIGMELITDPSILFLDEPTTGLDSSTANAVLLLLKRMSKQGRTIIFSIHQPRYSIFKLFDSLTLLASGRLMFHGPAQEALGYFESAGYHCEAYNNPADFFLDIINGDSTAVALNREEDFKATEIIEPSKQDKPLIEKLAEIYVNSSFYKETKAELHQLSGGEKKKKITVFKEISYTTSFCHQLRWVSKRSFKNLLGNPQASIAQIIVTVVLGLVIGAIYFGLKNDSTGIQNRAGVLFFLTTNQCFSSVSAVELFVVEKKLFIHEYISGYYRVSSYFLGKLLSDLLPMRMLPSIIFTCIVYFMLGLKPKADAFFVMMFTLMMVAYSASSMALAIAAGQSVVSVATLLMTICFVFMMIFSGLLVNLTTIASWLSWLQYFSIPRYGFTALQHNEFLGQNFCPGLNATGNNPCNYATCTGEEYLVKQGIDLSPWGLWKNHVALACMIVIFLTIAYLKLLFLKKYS
# Experimental: as §1, §2
# [3] = MDR1/BCRP assay: permeability in cPgp-KO-MDCK-WT cells; assay type: in vitro ADME; details: dog, test compounds at 1 μM, 2-hour time point, pH 7.4
# Experimental: as §1, §2
"efflux ratio at 2 h, 1 μM (MDR1)","efflux ratio at 2 h, 1 μM (BCRP)","Papp A→B at 2 h, 1 µM [3] [nm/s]",Structure (SMILES),CC50 [1] [µM],Selectivity [1],CC50 at 7 days [2] [µM]
0.8,0.7,122,"Cn1ncc2c(NC(=O)C(=O)N3CCC[C@@H]4Oc5cc(C(F)(F)F)ccc5[C@@H]43)cnc(N)c21 [Example Ca-2, N-(7-amino-1-methyl-11H-pyrazolo[3,4-c]pyridin-4-yl)-2-oxo-2-((4aS,9bS)-7-(trifluoromethyl)-3,4,4a,9b-tetrahydrobenzofuro[3,2-b]pyridin-1(2H)-yl)acetamide]",0.012,78,0.935
1.1,0.7,126,"C[C@H]1CN(C(=O)C(=O)Nc2cnc(N)c3c2cnn3C)[C@H]2c3ccc(C(F)(F)F)cc3C[C@H]2O1 [Example Ca-3, N-(7-amino-1-methyl-11H-pyrazolo[3,4-c]pyridin-4-yl)-2-((2S,4aS,9aR)-2-methyl-7-(trifluoromethyl)-2,3,9,9a-tetrahydroindeno[2,1-b][1,4]oxazin-4(4aH)-yl)-2-oxoacetamide]",0.038,77,2.94
0.9,0.6,260,"Cn1ncc2c(NC(=O)C(=O)N3CC[C@H]4C[C@@H]3c3ccc(OC(F)(F)F)cc3O4)cnc(N)c21 [Example Ca-4, N-(7-amino-1-methyl-1H-pyrazolo[3,4-c]pyridin-4-yl)-2-oxo-2-((2S,6R)-9-(trifluoromethoxy)-3,4-dihydro-2H-2,6-methanobenzo[b][1,5]oxazocin-5(6H)-yl)acetamide]",0.031,102,3.2
0.99,0.44,116,"Cn1ncc2c(NC(=O)C(=O)N3CC4(CC4)C[C@@H]4Oc5cc(C(F)(F)F)ccc5[C@@H]43)cnc(N)c21 [Example Ca-5, N-(7-amino-1-methyl-1H-pyrazolo[3,4-c]pyridin-4-yl)-2-oxo-2-((4aS,9bS)-7-(trifluoromethyl)-4a,9b-dihydro-2H-spiro[benzofuro[3,2-b]pyridine-3,1′-cyclopropan]-1(4H)-yl)acetamide]",0.008,73,0.589
0.9,2.6,93,"Cn1ncc2c(NC(=O)C(=O)N3CCC[C@@H]4Oc5cc(OC(F)(F)F)cc(F)c5[C@@H]43)cnc(N)c21 [Example Ca-6, N-(7-amino-1-methyl-1H-pyrazolo[3,4-c]pyridin-4-yl)-2-((4aS,9bS)-9-fluoro-7-(trifluoromethoxy)-3,4,4a,9b-tetrahydrobenzofuro[3,2-b]pyridin-1(2H)-yl)-2-oxoacetamide]",0.013,144,1.89
–,1.1,214,"Cn1ncc2c(NC(=O)C(=O)N3CCC[C@@H]4Oc5cc(Cl)ccc5[C@@H]43)cnc(N)c21 [Example Ca-7, N-(7-amino-1-methyl-1H-pyrazolo[3,4-c]pyridin-4-yl)-2-((4aS,9bS)-7-chloro-3,4,4a,9b-tetrahydrobenzofuro[3,2-b]pyridin-1(2H)-yl)-2-oxoacetamide]",0.016,108,1.7

# Continued, compound first:
Structure (SMILES),"efflux ratio at 2 h, 1 μM (MDR1)","efflux ratio at 2 h, 1 μM (BCRP)","Papp A→B at 2 h, 1 µM [3] [nm/s]",CC50 [1] [µM],Selectivity [1],CC50 at 7 days [2] [µM]
"Cn1ncc2c(NC(=O)C(=O)N3CCC[C@@H]4Oc5cc(OC(F)F)c(F)cc5[C@@H]43)cnc(N)c21 (relative stereo) [Example Ca-9, cis-N-(7-amino-1-methyl-1H-pyrazolo[3,4-c]pyridin-4-yl)-2-(7-(difluoromethoxy)-8-fluoro-3,4,4a,9b-tetrahydrobenzofuro[3,2-b]pyridin-1(2H)-yl)-2-oxoacetamide]",1.8,1.6,153,0.034,119,4.1
"Cn1ncc2c(NC(=O)C(=O)N3CCC[C@@H]4Oc5cc(C(F)(F)F)cc(F)c5[C@@H]43)cnc(N)c21 [Example Ca-1, N-(7-amino-1-methyl-1H-pyrazolo[3,4-c]pyridin-4-yl)-2-((4aS,9bS)-9-fluoro-7-(trifluoromethyl)-3,4,4a,9b-tetrahydrobenzofuro[3,2-b]pyridin-1(2H)-yl)-2-oxoacetamide]",1,0.7,120,0.01,103,1.03
"[2H]C([2H])([2H])n1ncc2c(NC(=O)C(=O)N3CCC[C@@H]4Oc5cc(C(F)(F)F)cc(F)c5[C@@H]43)cnc(N)c21 [Example Cb-1, N-(7-amino-1-(methyl-d3)-1H-pyrazolo[3,4-c]pyridin-4-yl)-2-((4aS,9bS)-9-fluoro-7-(trifluoromethyl)-3,4,4a,9b-tetrahydrobenzofuro[3,2-b]pyridin-1(2H)-yl)-2-oxoacetamide]",–,–,–,0.012,99,1.24
"Nc1ncc(NC(=O)C(=O)N2CCC[C@@H]3Oc4cc(C(F)(F)F)ccc4[C@@H]32)c2c1COC2 [Example Cc-1, N-(4-amino-1,3-dihydrofuro[3,4-c]pyridin-7-yl)-2-oxo-2-((4aS,9bS)-7-(trifluoromethyl)-3,4,4a,9b-tetrahydrobenzofuro[3,2-b]pyridin-1(2H)-yl)acetamide]",–,–,–,0.05,38,1.94
"Nc1ncc(NC(=O)C(=O)N2CCC[C@@H]3Oc4cc(C(F)(F)F)cc(F)c4[C@@H]32)c2c1COC2 [Example Cc-2, N-(4-amino-1,3-dihydrofuro[3,4-c]pyridin-7-yl)-2-((4aS,9bS)-9-fluoro-7-(trifluoromethyl)-3,4,4a,9b-tetrahydrobenzofuro[3,2-b]pyridin-1(2H)-yl)-2-oxoacetamide]",–,–,–,0.051,37,1.91
